# Data reported in the SangsterLogP compilation.
# Assay: method code SF-AS, from DOI: 10.1271/bbb1961.38.1521
row,Compound,logP
1,CNC(=O)Oc1ccccc1C#N,0.86
2,CCCc1ccc(OC(=O)NC)cc1,2.72
3,CNC(=O)Oc1cccc(Cl)c1,2.03
4,CNC(=O)Oc1ccccc1C(C)C,2.31
5,CNC(=O)Oc1cc(C)ccc1C(C)C,2.84
6,CNC(=O)Oc1cccc(C(C)(C)C)c1,2.93
7,CNC(=O)Oc1cccc(C(F)(F)F)c1,2.37
8,CNC(=O)Oc1ccccc1I,1.96
9,CNC(=O)Oc1cc(Cl)cc(Cl)c1,3.03
10,CNC(=O)Oc1ccc(S(C)(=O)=O)cc1,0.34
11,CNC(=O)Oc1ccc(SC)c(C)c1,2.47
12,CNC(=O)Oc1ccc(C(C)=O)cc1,1.01
13,CNC(=O)Oc1ccc(SC)cc1,1.92
14,CNC(=O)Oc1ccc(Br)cc1,2.17
15,CNC(=O)Oc1cccc(Br)c1,2.25
16,CNC(=O)Oc1ccccc1Br,1.77
17,CNC(=O)Oc1ccc(Cl)c(C)c1,2.57
18,CNC(=O)Oc1ccccc1F,1.25
19,CCOc1ccccc1OC(=O)NC,1.24
20,CNC(=O)Oc1ccc(C(C)(C)C)cc1,3.06
21,CNC(=O)Oc1ccc(C(C)(C)C)c(C)c1,3.38
22,CNC(=O)Oc1ccc(C(=O)OC)cc1,1.5
23,CNC(=O)Oc1cc(C)ccc1C(C)(C)C,3.14
24,CCCCOc1ccc(OC(=O)NC)cc1,2.86
25,CNC(=O)Oc1cccc(C)c1C,1.95
26,CNC(=O)Oc1ccc(Cl)c(Cl)c1,2.8

row,Compound,logP
1,CNC(=O)Oc1cccc(F)c1,1.48
2,CNC(=O)Oc1cccc(OC(C)C)c1,1.96
3,CNC(=O)Oc1ccccc1Cl,1.64
4,CNC(=O)Oc1cccc(C=O)c1,0.92
5,CNC(=O)Oc1cc(C)cc(C(C)(C)C)c1,3.35
6,CNC(=O)Oc1cccc2ccccc12,2.36
7,CNC(=O)Oc1ccccc1[N+](=O)[O-],1.02
8,CNC(=O)Oc1cccc(C(=O)OC)c1,1.42
9,CNC(=O)Oc1ccccc1OC,0.81
10,CNC(=O)Oc1ccc(C=O)cc1,0.99
11,CNC(=O)Oc1ccc(Cl)cc1,2.01
12,CCCCOc1cccc(OC(=O)NC)c1,2.96
13,CCCc1cccc(OC(=O)NC)c1,2.64
14,CCc1ccccc1OC(=O)NC,1.93
15,CNC(=O)Oc1ccc([N+](=O)[O-])cc1,1.47
16,CNC(=O)Oc1cc(C)ccc1C,2.03
17,CNC(=O)Oc1cc(C)cc(C(C)C)c1,3.1
18,CNC(=O)Oc1ccccc1C,1.46
19,CCC(C)c1ccc(OC(=O)NC)cc1 (stereo unspecified),3.2
20,CNC(=O)Oc1ccc2ccccc2c1,2.56
21,CCCc1ccccc1OC(=O)NC,2.4
22,CNC(=O)Oc1ccccc1C(C)(C)C,2.65
23,CNC(=O)Oc1ccc(C#N)cc1,0.95
24,CCC(=O)c1ccc(OC(=O)NC)cc1,1.55
25,CNC(=O)Oc1cccc(C(C)C)c1,2.63
